Experimental data as given in patent publication US20240408086A1, “USE OF LUVADAXISTAT FOR THE TREATMENT OF COGNITIVE IMPAIRMENT” (TAKEDA PHARMACEUTICAL COMPANY LIMITED, priority 2021, published 2024).

System: adult patients with persistent negative symptoms of schizophrenia
Format: in vivo, human
Excerpt: To assess changes in cognitive impairment associated with schizophrenia (CIAS), secondary endpoints included the 12-week change from baseline in the Brief Assessment of Cognition in Schizophrenia (BACS) composite score, a measure of cognition across multiple domains, and the Schizophrenia Cognition Rating Scale (SCORS) score, a measure of day-to-day cognitive functioning requiring input from an adult informant. Secondary endpoints were not corrected for multiplicity.
The BACS is specifically designed to measure treatment-related improvements in cognition and includes alternate forms. BACS is a reliable and sensitive measure of cognitive function in schizophrenia. The BACS is a cognition assessment battery that assesses 6 domains of cognitive function found to be consistently impaired in schizophrenia: verbal memory; working memory; motor speed; attention; executive functions; and verbal fluency. The primary measure from each test of the BACS is standardized by creating T-scores whereby the mean of the test session of a matched reference healthy participant is set to 50 and the standard deviation set to 10.

[1] = 50 mg once daily, MMRM, preliminary analysis
[2] = 50 mg once daily, preliminary analysis

O=c1[nH]nc(CCc2ccc(C(F)(F)F)cc2)cc1O [Compound (I), luvadaxistat]
BACS composite score, effect size versus placebo (50 mg once daily, 12 weeks, p=0.031, not corrected for multiplicity): 0.4 | BACS Verbal Memory Cognition Domain, Difference from Placebo for Week 12, LS Mean (SE) (50 mg once daily, MMRM, one-sided unadjusted p 0.038, preliminary analysis): 2.6 (1.43) | BACS Composite Score, Difference from Placebo for Week 12, LS Mean (SE) (50 mg once daily, MMRM, one-sided unadjusted p 0.046, preliminary analysis): 1.9 (1.15) | BACS Verbal Memory Cognition Domain, Difference from Placebo for Week 6, LS Mean (SE) (50 mg once daily, MMRM, one-sided unadjusted p 0.071, preliminary analysis): 1.9 (1.29) | BACS Composite Score, Difference from Placebo for Week 6, LS Mean (SE) (50 mg once daily, MMRM, one-sided unadjusted p 0.096, preliminary analysis): 1.3 (1.01) | BACS Motor Speed Cognition Domain, Difference from Placebo for Week 12, LS Mean (SE) (50 mg once daily, MMRM, one-sided unadjusted p 0.101, preliminary analysis): 1.5 (1.17) | BACS Working Memory Cognition Domain, Difference from Placebo for Week 12, LS Mean (SE) (50 mg once daily, MMRM, one-sided unadjusted p 0.413, preliminary analysis): 0.3 (1.34) | BACS Motor Speed Cognition Domain, Difference from Placebo for Week 6, LS Mean (SE) (50 mg once daily, MMRM, one-sided unadjusted p 0.440, preliminary analysis): 0.2 (1.26) | BACS Working Memory Cognition Domain, Difference from Placebo for Week 6, LS Mean (SE) (50 mg once daily, MMRM, one-sided unadjusted p 0.507, preliminary analysis): 0.0 (1.15) | BACS Composite Score, Adjusted Change from Baseline to Week 6, LS Mean (SE) [1]: 0.9 (0.81) | BACS Composite Score, Adjusted Change from Baseline to Week 12, LS Mean (SE) [1]: 2.7 (0.92) | BACS Motor Speed Cognition Domain, Adjusted Change from Baseline to Week 6, LS Mean (SE) [1]: 0.1 (1.00) | BACS Motor Speed Cognition Domain, Adjusted Change from Baseline to Week 12, LS Mean (SE) [1]: 1.0 (0.93) | BACS Verbal Memory Cognition Domain, Adjusted Change from Baseline to Week 6, LS Mean (SE) [1]: 0.6 (1.04) | BACS Verbal Memory Cognition Domain, Adjusted Change from Baseline to Week 12, LS Mean (SE) [1]: 1.9 (1.13) | BACS Working Memory Cognition Domain, Adjusted Change from Baseline to Week 6, LS Mean (SE) [1]: 0.0 (0.92) | BACS Working Memory Cognition Domain, Adjusted Change from Baseline to Week 12, LS Mean (SE) [1]: 0.9 (1.06) | BACS composite score, 12-week LS mean change from baseline (50 mg once daily, placebo 2.3): 4.6 | BACS Composite Score, Change from Baseline to Week 6, Mean (SD) [2]: 1.7 (5.81) | BACS Composite Score, Change from Baseline to Week 6, Median [2]: 2.0 | BACS Composite Score, Change from Baseline to Week 12, Mean (SD) [2]: 3.8 (5.91) | BACS Composite Score, Change from Baseline to Week 12, Median [2]: 3.0 | BACS Composite Score, Week 6, Mean (SD) [2]: 35.4 (14.53) | BACS Composite Score, Week 6, Median [2]: 34.0 | BACS Composite Score, Week 12, Mean (SD) [2]: 37.7 (13.30) | BACS Composite Score, Week 12, Median [2]: 37.5 | BACS Motor Speed Cognition Domain, Change from Baseline to Week 6, Mean (SD) [2]: 1.7 (5.73) | BACS Motor Speed Cognition Domain, Change from Baseline to Week 6, Median [2]: 1.0 | BACS Motor Speed Cognition Domain, Change from Baseline to Week 12, Mean (SD) [2]: 2.6 (6.80) | BACS Motor Speed Cognition Domain, Change from Baseline to Week 12, Median [2]: 1.0 | BACS Motor Speed Cognition Domain, Week 6, Mean (SD) [2]: 40.6 (13.61) | BACS Motor Speed Cognition Domain, Week 6, Median [2]: 40.0 | BACS Motor Speed Cognition Domain, Week 12, Mean (SD) [2]: 42.0 (12.93) | BACS Motor Speed Cognition Domain, Week 12, Median [2]: 41.5 | BACS Verbal Memory Cognition Domain, Change from Baseline to Week 6, Mean (SD) [2]: 1.6 (7.40) | BACS Verbal Memory Cognition Domain, Change from Baseline to Week 6, Median [2]: 0.0 | BACS Verbal Memory Cognition Domain, Change from Baseline to Week 12, Mean (SD) [2]: 3.2 (7.87) | BACS Verbal Memory Cognition Domain, Change from Baseline to Week 12, Median [2]: 4.0 | BACS Verbal Memory Cognition Domain, Week 6, Mean (SD) [2]: 41.7 (11.59) | BACS Verbal Memory Cognition Domain, Week 6, Median [2]: 44.5 | BACS Verbal Memory Cognition Domain, Week 12, Mean (SD) [2]: 42.9 (12.41) | BACS Verbal Memory Cognition Domain, Week 12, Median [2]: 43.5 | BACS Working Memory Cognition Domain, Change from Baseline to Week 6, Mean (SD) [2]: 1.0 (6.60) | BACS Working Memory Cognition Domain, Change from Baseline to Week 6, Median [2]: 0.0 | BACS Working Memory Cognition Domain, Change from Baseline to Week 12, Mean (SD) [2]: 2.1 (6.61) | BACS Working Memory Cognition Domain, Change from Baseline to Week 12, Median [2]: 1.0 | BACS Working Memory Cognition Domain, Week 6, Mean (SD) [2]: 40.8 (14.10) | BACS Working Memory Cognition Domain, Week 6, Median [2]: 42.0 | BACS Working Memory Cognition Domain, Week 12, Mean (SD) [2]: 42.0 (13.95) | BACS Working Memory Cognition Domain, Week 12, Median [2]: 42.5 | BACS Attention Cognition Domain, Change from Baseline to Week 6, Mean (SD) (50 mg, Week 6): 0.9 (7.74) | BACS Attention Cognition Domain, Change from Baseline to Week 6, Median (50 mg, Week 6): 0.0 | BACS Attention Cognition Domain, Week 6, Mean (SD) (50 mg, Week 6): 36.0 (14.78) | BACS Attention Cognition Domain, Week 6, Median (50 mg, Week 6): 34.0 | BACS Executive Functions Cognition Domain, Change from Baseline to Week 6, Mean (SD) (50 mg, Week 6): 1.6 (10.55) | BACS Executive Functions Cognition Domain, Change from Baseline to Week 6, Median (50 mg, Week 6): 2.0 | BACS Executive Functions Cognition Domain, Week 6, Mean (SD) (50 mg, Week 6): 44.9 (11.66) | BACS Executive Functions Cognition Domain, Week 6, Median (50 mg, Week 6): 48.5 | BACS Verbal Fluency Cognition Domain, Change from Baseline to Week 6, Mean (SD) (50 mg, Week 6): −0.2 (5.57) | BACS Verbal Fluency Cognition Domain, Change from Baseline to Week 6, Median (50 mg, Week 6): 0.0 | BACS Verbal Fluency Cognition Domain, Week 6, Mean (SD) (50 mg, Week 6): 39.9 (10.86) | BACS Verbal Fluency Cognition Domain, Week 6, Median (50 mg, Week 6): 38.0 | BACS Attention Cognition Domain, Adjusted Change from Baseline to Week 6, LS Mean (SE) (50 mg, Week 6, MMRM): 1.0 (0.90)
